Test results reported in ChEMBL document CHEMBL5154879, “Induction of Genes Implicated in Stress Response and Autophagy by a Novel Quinolin-8-yl-nicotinamide QN523 in Pancreatic Cancer” (J Med Chem, 2022).

Assays:
Assay type in all cases: functional, cell-based
MIA PaCa-2 = test: Cytotoxicity against human MIA PaCa-2 cells assessed as inhibition of cell growth incubated for 72 hrs by MTT assay; conditions: MIA PaCa-2, 72 h
PANC-1 = test: Cytotoxicity against human PANC-1 cells assessed as inhibition of cell growth incubated for 72 hrs by MTT assay; conditions: PANC-1, 72 h
BXPC-3 = test: Cytotoxicity against human BXPC-3 cells assessed as inhibition of cell growth incubated for 72 hrs by MTT assay; conditions: BXPC-3, 72 h

Cc1cnc(C(=O)Nc2cc(F)cc3cccnc23)cn1
IC50 (MIA PaCa-2): 0.31 µM | IC50 (PANC-1): 2.1 µM | IC50 (BXPC-3): > 10 µM

Cc1ccc(C(=O)Nc2cccc3cccnc23)cn1
IC50 (MIA PaCa-2): > 10 µM | IC50 (PANC-1): > 10 µM | IC50 (BXPC-3): > 10 µM

O=C(Nc1cccc2cccnc12)c1cccnn1
IC50 (MIA PaCa-2): 8.5 µM | IC50 (PANC-1): > 10 µM | IC50 (BXPC-3): > 10 µM

O=C(Nc1cc(F)cc2cccnc12)c1cnccn1
IC50 (MIA PaCa-2): 0.13 µM | IC50 (PANC-1): 0.67 µM | IC50 (BXPC-3): > 10 µM

NCCOc1cc(NC(=O)c2ncccn2)c2ncccc2c1
IC50 (MIA PaCa-2): > 10 µM | IC50 (PANC-1): > 10 µM | IC50 (BXPC-3): > 10 µM

O=C(Nc1ccc(Br)c2cccnc12)c1cnccn1
IC50 (MIA PaCa-2): 0.75 µM | IC50 (PANC-1): 7 µM | IC50 (BXPC-3): 7.5 µM

Cc1cnc(C(=O)Nc2cc(Cl)cc3cccnc23)cn1
IC50 (MIA PaCa-2): 1.5 µM | IC50 (PANC-1): 1.77 µM | IC50 (BXPC-3): 5.2 µM

O=C(Nc1cc(Cl)cc2cccnc12)c1ncccn1
IC50 (MIA PaCa-2): 0.8 µM | IC50 (PANC-1): 4.67 µM | IC50 (BXPC-3): > 10 µM

O=C(Nc1cccc2cccnc12)c1cccc(Br)n1
IC50 (MIA PaCa-2): > 10 µM | IC50 (PANC-1): > 10 µM | IC50 (BXPC-3): > 10 µM

O=C(Nc1cccc2cccnc12)c1ncccn1
IC50 (MIA PaCa-2): 0.33 µM | IC50 (PANC-1): > 10 µM | IC50 (BXPC-3): > 10 µM

Cc1cnc(C(=O)Nc2cc(OCCNC(=O)OC(C)(C)C)cc3cccnc23)cn1
IC50 (MIA PaCa-2): 0.67 µM | IC50 (PANC-1): 2.17 µM | IC50 (BXPC-3): 3.67 µM

Cc1cnc(C(=O)Nc2cc(OCCN3CCOCC3)cc3cccnc23)cn1
IC50 (MIA PaCa-2): 0.73 µM | IC50 (PANC-1): 3.5 µM | IC50 (BXPC-3): 2 µM

O=C(Nc1cc(F)cc2cccnc12)c1ncccn1
IC50 (MIA PaCa-2): 0.3 µM | IC50 (PANC-1): 5.3 µM | IC50 (BXPC-3): > 10 µM

O=C(Nc1cc(OCCF)cc2cccnc12)c1cnccn1
IC50 (MIA PaCa-2): 0.37 µM | IC50 (PANC-1): 0.53 µM | IC50 (BXPC-3): 4.33 µM

Cc1cnc(C(=O)Nc2cc(OCCN)cc3cccnc23)cn1
IC50 (MIA PaCa-2): > 10 µM | IC50 (PANC-1): > 10 µM | IC50 (BXPC-3): > 10 µM

CN(C)CCOc1cc(NC(=O)c2cnccn2)c2ncccc2c1
IC50 (MIA PaCa-2): > 10 µM | IC50 (PANC-1): > 10 µM | IC50 (BXPC-3): > 10 µM

O=C(Nc1cccc2cccnc12)c1ccc(Br)nc1
IC50 (MIA PaCa-2): > 10 µM | IC50 (PANC-1): > 10 µM | IC50 (BXPC-3): > 10 µM

Cc1ccc2cccc(NC(=O)c3cnccn3)c2n1
IC50 (MIA PaCa-2): > 10 µM | IC50 (PANC-1): > 10 µM | IC50 (BXPC-3): > 10 µM

Cc1cnc(C(=O)Nc2cc(OCCC3CCN(C(=O)OC(C)(C)C)CC3)cc3cccnc23)cn1
IC50 (MIA PaCa-2): 9 µM | IC50 (PANC-1): 9.67 µM | IC50 (BXPC-3): 9.33 µM

O=C(Nc1cc(Cl)cc2cccnc12)c1cnccn1
IC50 (MIA PaCa-2): 2.83 µM | IC50 (PANC-1): 2.7 µM | IC50 (BXPC-3): > 10 µM

O=C(Nc1cccc2cccnc12)c1ccc(F)nc1
IC50 (MIA PaCa-2): > 10 µM | IC50 (PANC-1): > 10 µM | IC50 (BXPC-3): > 10 µM

Cc1cnc(C(=O)Nc2ccc3ncccc3c2)cn1
IC50 (MIA PaCa-2): > 10 µM | IC50 (PANC-1): > 10 µM | IC50 (BXPC-3): > 10 µM

Cc1ccc2cccc(NC(=O)c3ncccn3)c2n1
IC50 (MIA PaCa-2): > 10 µM | IC50 (PANC-1): > 10 µM | IC50 (BXPC-3): > 10 µM

CC(C)(C)OC(=O)NCCOc1cc(NC(=O)c2ncccn2)c2ncccc2c1
IC50 (MIA PaCa-2): > 10 µM | IC50 (PANC-1): > 10 µM | IC50 (BXPC-3): > 10 µM

Cc1cnc(C(=O)Nc2ccc(Br)c3cccnc23)cn1
IC50 (MIA PaCa-2): 2.2 µM | IC50 (PANC-1): 6.8 µM | IC50 (BXPC-3): > 10 µM

O=C(Nc1cccc2cccnc12)c1ncc2ccccc2n1
IC50 (MIA PaCa-2): > 10 µM | IC50 (PANC-1): > 10 µM | IC50 (BXPC-3): > 10 µM

Cc1cnc(C(=O)Nc2cccc3ccc(C)nc23)cn1
IC50 (MIA PaCa-2): > 10 µM | IC50 (PANC-1): > 10 µM | IC50 (BXPC-3): > 10 µM

CC(C)(C)OC(=O)N1CCC(CCOc2cc(NC(=O)c3ncccn3)c3ncccc3c2)CC1
IC50 (MIA PaCa-2): > 10 µM | IC50 (PANC-1): > 10 µM | IC50 (BXPC-3): > 10 µM

Cc1cnc(C(=O)Nc2cccc3ncccc23)cn1
IC50 (MIA PaCa-2): > 10 µM | IC50 (PANC-1): > 10 µM | IC50 (BXPC-3): > 10 µM

COc1cc(NC(=O)c2cnccn2)c2ncccc2c1
IC50 (MIA PaCa-2): 0.47 µM | IC50 (PANC-1): 2.17 µM | IC50 (BXPC-3): 0.47 µM

O=C(Nc1cccc2cccnc12)c1ccc(Br)cn1
IC50 (MIA PaCa-2): 1.8 µM | IC50 (PANC-1): 4 µM | IC50 (BXPC-3): > 10 µM

CC(C)(C)OC(=O)C1CCN(CCOc2cc(NC(=O)c3cnccn3)c3ncccc3c2)CC1
IC50 (MIA PaCa-2): 3.67 µM | IC50 (PANC-1): 9.5 µM | IC50 (BXPC-3): 3.33 µM
